Measured values from patent US9597382B2, “KNTC2 peptides and vaccines containing the same” (ONCOTHERAPY SCIENCE, INC., priority 2013, dated 2017).

Key:
[1] = test system: peptide-pulsed C1R-A02 cells; test: IFN-gamma ELISPOT assay on CTLs induced with KNTC2 peptides; type: cell-based, human; details: CTLs induced with peptide-pulsed DCs from HLA-A*0201 positive donor; peptide-pulsed C1R-A02 cells vs control wells
Text: Monocyte-derived dendritic cells (DCs) were used as antigen-presenting cells to induce cytotoxic T lymphocyte (CTL) responses against peptides presented on human leukocyte antigen (HLA). DCs were generated in vitro as described elsewhere (Nakahara S et al., Cancer Res 2003 Jul. 15, 63(14): 4112-8). Specifically, peripheral blood mononuclear cells isolated from a normal volunteer (HLA-A*0201 positive) by Ficoll-Paque plus (Pharmacia) solution were separated by adherence to a plastic tissue culture dish (Becton Dickinson) so as to enrich them as the monocyte fraction. The monocyte-enriched population was cultured in the presence of 1000 IU/ml of granulocyte-macrophage colony-stimulating factor (R&D System) and 1000 IU/ml of interleukin (IL)-4 (R&D System) in AIM-V Medium (Invitrogen) containing 2% heat-inactivated autologous serum (AS). After 7 days of culture, the cytokine-induced DCs were pulsed with 20 micro g/ml of each of the synthesized peptides in the presence of 3 micro g/ml of beta 2-microglobulin for 3 hr at 37 degrees C. in AIM-V Medium. The generated cells appeared to express DC-associated molecules, such as CD80, CD83, CD86 and HLA class II, on their cell surfaces (data not shown). These peptide-pulsed DCs were then inactivated by X ray-irradiated (20 Gy) and mixed at a 1:20 ratio with autologous CD8+ T cells, obtained by positive selection with CD8 Positive Isolation Kit (Dynal). These cultures were set up in 48-well plates (Corning); each well contained 1.5×10^4 peptide-pulsed DCs, 3×10^5 CD8+ T cells and 10 ng/ml of IL-7 (R&D System) in 0.5 ml of AIM-V/2% AS medium. Three days later, these cultures were supplemented with IL-2 (CHIRON) to a final concentration of 20 IU/ml. On day 7 and 14, the T cells were further stimulated with the autologous peptide-pulsed DCs. The DCs were prepared each time by the same way described above. CTL was tested against peptide-pulsed C1R-A02 cells after the 3rd round of peptide stimulation on day 21 (Tanaka H et al., Br J Cancer 2001 Jan. 5, 84(1): 94-9; Umano Y et al., Br J Cancer 2001 Apr. 20, 84(8): 1052-7; Uchida N et al., Clin Cancer Res 2004 Dec. 15, 10(24): 8577-86; Suda T et al., Cancer Sci 2006 May, 97(5): 411-9; Watanabe T et al., Cancer Sci 2005 August, 96(8): 498-506).
(§1) To examine specific CTL activity, IFN-gamma ELISPOT assay and IFN-gamma ELISA were performed. Peptide-pulsed C1R-A02 cells (1×10^4/well) were prepared as stimulator cells. Cultured cells in 48-well plate, CTL lines and CTL clones were used as responder cells. IFN-gamma ELISPOT assay and IFN-gamma ELISA were performed under the manufacturer's procedure.

[2] = test system: peptide-pulsed C1R-A02 cells; test: IFN-gamma ELISA of CTL lines; type: cell-based, human; details: target cells pulsed with corresponding peptide vs without peptide pulse
Description: CTLs were expanded in culture using the method similar to the one described by Riddell et al. (Walter E A et al., N Engl J Med 1995 Oct. 19, 333(16): 1038-44; Riddell S R et al., Nat Med 1996 Feb. 2(2): 216-23). A total of 5×10^4 CTLs were suspended in 25 ml of AIM-V/5% AS medium with 2 kinds of human B-lymphoblastoid cell lines, inactivated by Mitomycin C, in the presence of 40 ng/ml of anti-CD3 monoclonal antibody (Pharmingen). One day after initiating the cultures, 120 IU/ml of IL-2 were added to the cultures. The cultures were fed with fresh AIM-V/5% AS medium containing 30 IU/ml of IL-2 on days 5, 8 and 11 (Tanaka H et al., Br J Cancer 2001 Jan. 5, 84(1): 94-9; Umano Y et al., Br J Cancer 2001 Apr. 20, 84(8): 1052-7; Uchida N et al., Clin Cancer Res 2004 Dec. 15, 10(24): 8577-86; Suda T et al., Cancer Sci 2006 May, 97(5): 411-9; Watanabe T et al., Cancer Sci 2005 August, 96(8): 498-506).
as §1

[3] = test system: C1R-A02 cells pulsed with corresponding peptide; test: IFN-gamma ELISA of CTL clones established by limiting dilution; type: cell-based, human
Description: The dilutions were made to have 0.3, 1, and 3 CTLs/well in 96 round-bottomed micro titer plate (Nalge Nunc International). CTLs were cultured with 1×10^4 cells/well of 2 kinds of human B-lymphoblastoid cell lines, 30 ng/ml of anti-CD3 antibody, and 125 IU/ml of IL-2 in a total of 150 micro 1/well of AIM-V Medium containing 5% AS. 50 micro 1/well of IL-2 were added to the medium 10 days later to reach a final concentration of 125 IU/ml IL-2. CTL activity was tested on the 14th day, and CTL clones were expanded using the same method as described above (Uchida N et al., Clin Cancer Res 2004 Dec. 15, 10(24): 8577-86; Suda T et al., Cancer Sci 2006 May, 97(5): 411-9; Watanabe T et al., Cancer Sci 2005 August, 96(8): 498-506).
as §1

[4] = test system: COS7 cells transfected with KNTC2 and HLA-A*0201; test: Specific CTL activity against target cells expressing KNTC2 and HLA-A*0201; type: cell-based, African green monkey
Text: The cDNA encoding an open reading frame of target genes or HLA-A*0201 was amplified by PCR. The PCR-amplified product was cloned into expression vector. The plasmids were transfected into COS7, which is the target genes and HLA-A*0201-null cell line, using lipofectamine 2000 (Invitrogen) according to the manufacturer's procedure. After 2 days from transfection, the transfected cells were harvested with versene (Invitrogen) and used as the stimulator cells (5×10^4 cells/well) for CTL activity assay.
The established CTL line raised against KNTC2-A02-9-184 (SEQ ID NO: 7) peptide was examined for the ability to recognize target cells that express KNTC2 and HLA-A*0201 molecule. COS7 cells transfected with both the full length of KNTC2 and HLA-A*0201 gene (a specific model for the target cells that express KNTC2 and HLA-A*0201 gene) were prepared as a stimulator cells, and COS7 cells transfected with either full length of KNTC2 or HLA-A*0201 were used as the controls.

IVAALVWLI (a peptide derived from KNTC2) [SEQ ID NO: 3, 9mer peptide derived from KNTC2, start position 181]
Peptide specific CTL activity (IFN-gamma production) by IFN-gamma ELISPOT [1]: potent IFN-gamma production | IFN-gamma production of CTL lines by IFN-gamma ELISA [2]: potent IFN-gamma production | IFN-gamma production of CTL clones by IFN-gamma ELISA [3]: Potent IFN-gamma production

KIFTFLYGF (a peptide derived from KNTC2) [SEQ ID NO: 17, 9mer peptide derived from KNTC2, start position 127]
Peptide specific CTL activity (IFN-gamma production) by IFN-gamma ELISPOT [1]: potent IFN-gamma production

FLYGFLCPS (a peptide derived from KNTC2) [SEQ ID NO: 2, 9mer peptide derived from KNTC2, start position 131]
Peptide specific CTL activity (IFN-gamma production) by IFN-gamma ELISPOT [1]: potent IFN-gamma production | IFN-gamma production of CTL lines by IFN-gamma ELISA [2]: potent IFN-gamma production | IFN-gamma production of CTL clones by IFN-gamma ELISA [3]: Potent IFN-gamma production

GLNEEIARV (a peptide derived from KNTC2) [SEQ ID NO: 1, 9mer peptide derived from KNTC2, start position 330]
Peptide specific CTL activity (IFN-gamma production) by IFN-gamma ELISPOT [1]: no specific IFN-gamma production

AILDQKLNGL (a peptide derived from KNTC2) [SEQ ID NO: 53, 10mer peptide derived from KNTC2, start position 322]
Peptide specific CTL activity (IFN-gamma production) by IFN-gamma ELISPOT [1]: potent IFN-gamma production

KIFTFLYGFL (a peptide derived from KNTC2) [SEQ ID NO: 41, 10mer peptide derived from KNTC2, start position 127]
Peptide specific CTL activity (IFN-gamma production) by IFN-gamma ELISPOT [1]: potent IFN-gamma production

ALVWLIDCI (a peptide derived from KNTC2) [SEQ ID NO: 7, 9mer peptide derived from KNTC2, start position 184]
CTL activity of CTL line against COS7 cells expressing both KNTC2 and HLA-A*0201 ([4]; COS7 transfected with both full length KNTC2 and HLA-A*0201): potent CTL activity | CTL activity of CTL line against control COS7 cells ([4]; COS7 transfected with either full length KNTC2 or HLA-A*0201): no significant specific CTL activity was detected | Peptide specific CTL activity (IFN-gamma production) by IFN-gamma ELISPOT [1]: potent IFN-gamma production | IFN-gamma production of CTL lines by IFN-gamma ELISA [2]: potent IFN-gamma production | IFN-gamma production of CTL clones by IFN-gamma ELISA [3]: Potent IFN-gamma production

LVWLIDCIKI (a peptide derived from KNTC2) [SEQ ID NO: 68, 10mer peptide derived from KNTC2, start position 185]
Peptide specific CTL activity (IFN-gamma production) by IFN-gamma ELISPOT [1]: potent IFN-gamma production
